Assay results as given in the supplement of paper PMC10331698.
± gives the standard deviation of the averaged measurements.

Assays:
Assay in all cases: level (log10 ratio to DMSO vehicle control); higher = higher biomarker level / cell amount than vehicle control
[1] = compound: OCCC(F)(F)C(F)(F)C(F)(F)C(F)(F)C(F)(F)C(F)(F)C(F)(F)C(F)(F)F [8:2 Fluorotelomer alcohol]; settings: 6700 nM; in DMSO
Procedure: (§1)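 BioMAP Diversity Plus panel of 12 human primary cell co-culture systems (3C, 4H, LPS, SAg, BT, BF4T, BE3C, CASM3C, HDF3CGF, KF3CT, MyoF, Mphg). Compounds were added 1 h before stimulation and left for 24 h (MyoF 48 h; BT 72 h for soluble read-outs or 6 d for IgG). Biomarkers were read by ELISA, cytotoxicity by SRB, PBMC viability and proliferation by Alamar Blue. Each well value was divided by the mean of 8 DMSO control wells on the same plate and log10 transformed; duplicate blinded samples were tested at 4 concentrations.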

Tetrafluorosuccinic acid = compound: O=C(O)C(F)(F)C(F)(F)C(=O)O [Tetrafluorosuccinic acid]; settings: in DMSO
Procedure: as §1

[2] = compound: O=C(CC(=O)C(F)(F)C(F)(F)C(F)(F)F)c1cccs1 [(Perfluorobutyryl)-2-thenoylmethane]; settings: in DMSO
Procedure: as §1

[3] = compound: O=C(Cl)C(F)(F)C(F)(F)C(F)(F)C(=O)Cl [Hexafluoroglutaryl chloride]; settings: in DMSO
Procedure: as §1

[4] = compound: OCCCC(F)(F)C(F)(F)C(F)(F)C(F)(F)C(F)(F)C(F)(F)C(F)(F)C(F)(F)F [3-(Perfluorooctyl)propanol]; settings: 6700 nM; in DMSO
Procedure: as §1

[5] = compound: OCC(F)(F)C(F)(F)C(F)(F)C(F)(F)C(F)(F)C(F)(F)F [6:1 Fluorotelomer alcohol]; settings: in DMSO
Procedure: as §1

[6] = compound: C=C(C)C(=O)OCC(F)(F)C(F)(F)C(F)(F)F [2,2,3,3,4,4,4-Heptafluorobutyl methacrylate]; settings: in DMSO
Procedure: as §1

Perfluoropinacol = compound: OC(C(F)(F)F)(C(F)(F)F)C(O)(C(F)(F)F)C(F)(F)F [Perfluoropinacol]; settings: in DMSO
Procedure: as §1

Test System | level (log10) [1] | level (log10) (Tetrafluorosuccinic acid; 6700 nM) | level (log10) (Tetrafluorosuccinic acid; 20000 nM) | level (log10) (Tetrafluorosuccinic acid; 60000 nM) | level (log10) ([2]; 6700 nM) | level (log10) ([2]; 20000 nM) | level (log10) ([3]; 6700 nM) | level (log10) ([3]; 20000 nM) | level (log10) ([3]; 60000 nM) | level (log10) [4] | level (log10) ([5]; 6700 nM) | level (log10) ([5]; 20000 nM) | level (log10) ([5]; 60000 nM) | level (log10) ([6]; 6700 nM) | level (log10) ([6]; 20000 nM) | level (log10) ([6]; 60000 nM) | level (log10) (Perfluoropinacol; 6700 nM) | level (log10) (Perfluoropinacol; 20000 nM)
KF3CT:CCL2/MCP-1 | -0.0165 ± 0.025 | -0.05 ± 0.0085 | -0.042 ± 0.021 | -0.0065 ± 0.07 | 0.0205 ± 0.013 | 0.006 ± 0.0057 | -0.021 ± 0.016 | -0.007 ± 0.017 | 0.0075 ± 0.016 | -0.077 ± 0.025 | 0.012 ± 0.0014 | 0.009 ± 0.0099 | -0.007 ± 0.0085 | 0.026 ± 0.014 | 0.008 ± 0.0085 | -0.0155 ± 0.0035 | 0.0955 ± 0.013 | 0.211 ± 0.024
HDF3CGF:Proliferation 72hr | -0.374 ± 0.26 | -0.08 ± 0.076 | -0.135 ± 0.061 | -0.0935 ± 0.069 | -0.38 ± 0.0092 | -0.485 ± 0.005 | 0.001 ± 0.0042 | -0.0005 ± 0.012 | -0.0095 ± 0.019 | -1.04 ± 0.033 | -0.0265 ± 0.033 | 0.003 ± 0.011 | -0.87 ± 0.098 | -0.0095 ± 0.087 | 0.001 ± 0.042 | 0.008 ± 0.0071 | -0.183 ± 0.044 | -0.39 ± 0.05
HDF3CGF:Collagen I | -0.022 ± 0.0042 | -0.0515 ± 0.025 | -0.0235 ± 0.018 | -0.0305 ± 0.029 | -0.0265 ± 0.04 | -0.185 ± 0.0071 | -0.025 ± 0.023 | 0.002 | 0.0065 ± 0.028 | 0.161 ± 0.077 | -0.01 ± 0.0085 | -0.0005 ± 0.005 | 0.0145 ± 0.039 | -0.0145 ± 0.0021 | -0.0495 ± 0.064 | 0.016 ± 0.033 | -0.0205 ± 0.0092 | -0.0685 ± 0.015
3C:CCL2/MCP-1 | -0.0025 ± 0.0021 | -0.0065 ± 0.016 | -0.006 ± 0.0028 | 0.0005 ± 0.0064 | -0.0145 ± 0.013 | -0.166 ± 0.0085 | 0.009 ± 0.0028 | -0.0105 ± 0.035 | 0.009 ± 0.065 | 0.003 ± 0.013 | -0.005 ± 0.011 | -0.005 ± 0.0014 | -0.007 ± 0.033 | -0.0015 ± 0.0035 | -0.009 ± 0.0071 | 0.01 ± 0.027 | 0.092 ± 0.013 | 0.0445 ± 0.012
CASM3C:SRB | -0.014 ± 0.0057 | -0.012 ± 0.0028 | -0.005 ± 0.0014 | -0.0105 ± 0.005 | 0.0105 ± 0.0064 | -0.0125 ± 0.0078 | -0.0045 ± 0.0021 | 0.007 ± 0.0042 | 0.0115 ± 0.016 | -0.008 ± 0.0042 | 0.008 | 0.003 ± 0.0057 | -0.04 ± 0.0042 | 0.0045 ± 0.0021 | -0.0005 ± 0.0092 | -0.004 ± 0.0057 | -0.02 ± 0.0099 | -0.061 ± 0.0057
BE3C:tPA | -0.064 ± 0.013 | -0.037 ± 0.023 | -0.0505 ± 0.026 | -0.0365 ± 0.022 | -0.1 ± 0.014 | -0.234 ± 0.011 | -0.005 ± 0.0014 | -0.009 ± 0.014 | -0.0075 ± 0.022 | 0.0365 ± 0.012 | 0.0055 ± 0.012 | -0.0145 ± 0.019 | -0.0075 ± 0.0021 | -0.0095 ± 0.029 | -0.016 ± 0.016 | -0.021 ± 0.027 | -0.0455 ± 0.0078 | -0.224 ± 0.012
BE3C:MMP-9 | -0.028 ± 0.02 | -0.014 ± 0.027 | -0.0035 ± 0.011 | -0.005 ± 0.0028 | 0.0275 ± 0.013 | -0.269 ± 0.0099 | -0.0005 ± 0.00071 | -0.003 ± 0.018 | -0.0325 ± 0.042 | 0.036 ± 0.038 | -0.0045 ± 0.037 | -0.0065 ± 0.019 | 0.0155 ± 0.021 | 0.0155 ± 0.0092 | -0.0075 ± 0.016 | 0.032 ± 0.025 | -0.011 ± 0.0014 | -0.04 ± 0.0028
CASM3C:CD142/Tissue Factor | -0.011 ± 0.014 | -0.0165 ± 0.026 | -0.0345 ± 0.00071 | -0.025 ± 0.024 | -0.144 ± 0.013 | -0.105 ± 0.021 | -0.0245 ± 0.028 | -0.0635 ± 0.037 | -0.0395 ± 0.035 | -0.007 ± 0.054 | 0.009 ± 0.017 | 0.0035 ± 0.0092 | -0.0315 ± 0.015 | -0.006 ± 0.021 | 0 ± 0.038 | 0.0045 ± 0.022 | -0.0515 ± 0.022 | -0.0235 ± 0.06
KF3CT:TIMP-2 | -0.0175 ± 0.026 | 0 ± 0.0071 | 0.0365 ± 0.005 | 0.027 ± 0.024 | -0.0365 ± 0.00071 | -0.05 ± 0.016 | -0.029 ± 0.023 | 0.003 ± 0.0099 | 0.02 ± 0.034 | -0.0255 ± 0.063 | -0.0025 ± 0.005 | 0.0035 ± 0.0021 | 0.008 ± 0.017 | -0.004 ± 0.016 | -0.0165 ± 0.00071 | -0.0035 ± 0.012 | 0.013 ± 0.0085 | 0.0745 ± 0.0064
KF3CT:PAI-I | -0.0255 ± 0.018 | -0.0465 ± 0.037 | -0.0005 ± 0.0021 | 0 ± 0.0014 | -0.035 ± 0.0071 | -0.058 ± 0.013 | -0.012 ± 0.028 | -0.0005 ± 0.0078 | -0.0055 ± 0.015 | -0.104 ± 0.077 | -0.0005 ± 0.011 | -0.001 ± 0.011 | 0.008 ± 0.0099 | 0.005 ± 0.0099 | 0.008 ± 0.0014 | 0.014 | 0.001 ± 0.0042 | -0.0435 ± 0.012
lMphg:SRB | -0.02 | -0.008 ± 0.0014 | 0.001 | 0.001 ± 0.013 | -0.0175 ± 0.0064 | -0.106 ± 0.029 | 0.008 ± 0.0057 | 0.012 | 0.0075 ± 0.0092 | 0.0045 ± 0.0078 | -0.001 ± 0.0099 | -0.001 ± 0.0028 | -0.0005 ± 0.0092 | -0.0075 ± 0.0092 | -0.004 ± 0.0057 | 0.0005 ± 0.021 | -0.0315 ± 0.0035 | -0.144 ± 0.0064
CASM3C:LDLR | -0.0045 ± 0.0078 | 0.0005 ± 0.0035 | -0.02 ± 0.014 | 0.0015 ± 0.019 | -0.044 ± 0.025 | -0.079 ± 0.033 | -0.052 ± 0.03 | -0.0235 ± 0.025 | 0.0035 ± 0.035 | 0.0385 ± 0.023 | 0.0045 ± 0.016 | 0.014 ± 0.017 | -0.0585 ± 0.022 | -0.0045 ± 0.036 | 0.006 ± 0.0042 | 0.0055 ± 0.0078 | -0.067 ± 0.0014 | -0.0505 ± 0.018
HDF3CGF:CXCL11/I-TAC | -0.04 ± 0.024 | -0.03 ± 0.035 | -0.0215 ± 0.005 | -0.0565 ± 0.071 | -0.014 ± 0.013 | -0.114 ± 0.0092 | -0.015 ± 0.0057 | -0.0145 ± 0.022 | -0.0085 ± 0.013 | -0.367 ± 0.096 | -0.009 ± 0.016 | -0.014 ± 0.0071 | -0.22 ± 0.35 | -0.0085 ± 0.023 | -0.01 ± 0.034 | -0.0405 ± 0.018 | -0.062 ± 0.041 | -0.234 ± 0.015
MyoF:PAI-I | -0.004 ± 0.018 | 0.009 ± 0.0057 | 0.01 ± 0.017 | 0.004 ± 0.014 | 0.0095 ± 0.0035 | 0.013 ± 0.0085 | -0.001 ± 0.0085 | 0.02 ± 0.013 | 0.01 ± 0.0042 | -0.0075 ± 0.021 | 0.0015 ± 0.0078 | -0.006 ± 0.0042 | 0.0025 ± 0.019 | -0.001 ± 0.0085 | 0.008 ± 0.0085 | 0.015 ± 0.0014 | -0.0215 ± 0.012 | -0.0025 ± 0.00071
KF3CT:IL-1alpha | -0.0545 ± 0.029 | -0.012 ± 0.0042 | -0.0385 ± 0.019 | 0.007 ± 0.023 | 0.0165 ± 0.005 | 0.009 ± 0.0028 | -0.0085 ± 0.0078 | 0.0095 ± 0.013 | -0.012 ± 0.018 | -0.0985 ± 0.012 | -0.005 ± 0.02 | 0.0195 ± 0.021 | 0.007 ± 0.0071 | -0.005 ± 0.0071 | -0.007 ± 0.014 | -0.0005 ± 0.016 | 0.0765 ± 0.028 | 0.155 ± 0.032
lMphg:M-CSF | -0.0345 ± 0.021 | -0.005 ± 0.018 | -0.0105 ± 0.0092 | 0.019 ± 0.03 | -0.0285 ± 0.0021 | -0.072 ± 0.0085 | 0.011 | -0.021 ± 0.031 | 0.018 ± 0.011 | -0.0255 ± 0.00071 | -0.023 ± 0.028 | -0.0415 ± 0.035 | -0.0285 ± 0.029 | -0.011 ± 0.0085 | -0.02 ± 0.02 | -0.021 ± 0.0071 | -0.0155 ± 0.04 | -0.0825 ± 0.013
